{"source": "ChEMBL document CHEMBL4806968", "about": "“Hipk inhibitors and methods of use thereof” (2020)", "key": {"[1]": {"target": "T1, Ephrin type-B receptor 4 (Homo sapiens) (UniProt P54760)", "T1 sequence (whole entry)": "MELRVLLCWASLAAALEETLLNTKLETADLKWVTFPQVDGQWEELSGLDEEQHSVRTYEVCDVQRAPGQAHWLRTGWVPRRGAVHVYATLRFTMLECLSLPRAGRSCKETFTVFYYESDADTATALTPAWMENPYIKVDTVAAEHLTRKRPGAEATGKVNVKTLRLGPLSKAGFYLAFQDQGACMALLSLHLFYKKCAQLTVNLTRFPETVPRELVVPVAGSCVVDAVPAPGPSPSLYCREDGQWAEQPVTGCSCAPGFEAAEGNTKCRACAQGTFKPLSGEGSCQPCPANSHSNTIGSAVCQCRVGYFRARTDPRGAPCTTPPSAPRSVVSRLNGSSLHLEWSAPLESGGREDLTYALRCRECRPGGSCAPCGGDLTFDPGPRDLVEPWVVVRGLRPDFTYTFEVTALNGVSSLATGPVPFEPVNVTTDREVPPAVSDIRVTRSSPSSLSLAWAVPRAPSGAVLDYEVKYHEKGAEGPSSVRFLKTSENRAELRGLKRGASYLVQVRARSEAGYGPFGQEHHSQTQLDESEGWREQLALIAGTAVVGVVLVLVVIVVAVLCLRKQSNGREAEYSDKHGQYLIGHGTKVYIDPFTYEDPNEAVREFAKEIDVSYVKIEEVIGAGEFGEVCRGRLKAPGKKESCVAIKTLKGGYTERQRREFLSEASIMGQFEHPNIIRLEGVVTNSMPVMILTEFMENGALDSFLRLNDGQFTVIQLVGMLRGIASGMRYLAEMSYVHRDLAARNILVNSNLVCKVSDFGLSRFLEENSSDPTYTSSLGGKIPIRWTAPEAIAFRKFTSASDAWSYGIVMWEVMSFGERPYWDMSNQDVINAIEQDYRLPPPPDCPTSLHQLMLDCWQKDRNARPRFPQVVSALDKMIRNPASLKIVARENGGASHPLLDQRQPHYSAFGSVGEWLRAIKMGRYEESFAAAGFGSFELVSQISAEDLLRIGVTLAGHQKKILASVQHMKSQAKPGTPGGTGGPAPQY", "experiment": "Inhibition of EPHB4 (unknown origin) at 0.5 uM relative to control"}, "[2]": {"target": "T2, Ephrin type-A receptor 6 (Homo sapiens) (UniProt Q9UF33)", "T2 sequence (whole entry)": "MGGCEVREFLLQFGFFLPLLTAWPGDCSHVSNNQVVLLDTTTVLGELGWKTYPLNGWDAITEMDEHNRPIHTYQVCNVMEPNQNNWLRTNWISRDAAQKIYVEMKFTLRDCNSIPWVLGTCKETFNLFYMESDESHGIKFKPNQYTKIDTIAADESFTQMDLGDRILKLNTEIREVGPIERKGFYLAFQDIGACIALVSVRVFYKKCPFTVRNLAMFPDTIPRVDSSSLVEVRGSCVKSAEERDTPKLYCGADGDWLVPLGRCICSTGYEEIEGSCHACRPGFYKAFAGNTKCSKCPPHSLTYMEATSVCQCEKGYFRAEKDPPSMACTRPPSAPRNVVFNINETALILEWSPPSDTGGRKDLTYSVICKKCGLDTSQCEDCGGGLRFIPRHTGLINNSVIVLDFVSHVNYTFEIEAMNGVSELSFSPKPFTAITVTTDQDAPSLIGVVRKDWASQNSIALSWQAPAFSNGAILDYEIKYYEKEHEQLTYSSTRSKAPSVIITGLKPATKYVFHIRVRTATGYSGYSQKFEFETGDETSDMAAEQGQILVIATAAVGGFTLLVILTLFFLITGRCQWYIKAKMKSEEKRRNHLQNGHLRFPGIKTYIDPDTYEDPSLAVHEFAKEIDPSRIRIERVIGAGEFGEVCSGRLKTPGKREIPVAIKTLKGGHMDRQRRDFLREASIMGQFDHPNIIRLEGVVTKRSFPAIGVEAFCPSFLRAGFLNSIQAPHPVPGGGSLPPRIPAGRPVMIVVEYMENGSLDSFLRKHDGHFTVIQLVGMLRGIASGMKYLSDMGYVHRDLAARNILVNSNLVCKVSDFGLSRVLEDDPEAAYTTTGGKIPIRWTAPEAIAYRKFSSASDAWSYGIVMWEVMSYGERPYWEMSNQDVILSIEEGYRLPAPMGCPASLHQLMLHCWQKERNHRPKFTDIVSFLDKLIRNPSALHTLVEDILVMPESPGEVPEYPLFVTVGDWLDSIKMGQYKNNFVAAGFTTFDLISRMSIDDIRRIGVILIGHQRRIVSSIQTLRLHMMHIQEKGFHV", "experiment": "Inhibition of EPHA6 (unknown origin) at 0.5 uM relative to control"}, "[3]": {"target": "Protein-tyrosine kinase 6 (Homo sapiens) (UniProt Q13882)", "sequence (Q13882 whole entry, looked up)": "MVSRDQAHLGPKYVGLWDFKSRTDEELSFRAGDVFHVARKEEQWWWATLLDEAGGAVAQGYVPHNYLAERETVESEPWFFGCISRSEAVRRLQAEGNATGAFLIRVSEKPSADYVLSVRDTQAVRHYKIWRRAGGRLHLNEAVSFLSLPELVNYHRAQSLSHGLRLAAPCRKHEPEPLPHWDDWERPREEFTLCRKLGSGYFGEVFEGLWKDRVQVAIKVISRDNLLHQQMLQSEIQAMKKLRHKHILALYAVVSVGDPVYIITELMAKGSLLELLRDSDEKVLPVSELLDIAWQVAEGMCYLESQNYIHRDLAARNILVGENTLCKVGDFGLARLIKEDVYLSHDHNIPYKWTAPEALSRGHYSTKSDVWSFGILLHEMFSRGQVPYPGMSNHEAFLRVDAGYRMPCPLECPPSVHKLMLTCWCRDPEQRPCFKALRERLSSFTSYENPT", "experiment": "Inhibition of BRK (unknown origin) at 0.5 uM relative to control"}, "[4]": {"target": "T3, Ephrin type-A receptor 8 (Homo sapiens) (UniProt P29322)", "T3 sequence (whole entry)": "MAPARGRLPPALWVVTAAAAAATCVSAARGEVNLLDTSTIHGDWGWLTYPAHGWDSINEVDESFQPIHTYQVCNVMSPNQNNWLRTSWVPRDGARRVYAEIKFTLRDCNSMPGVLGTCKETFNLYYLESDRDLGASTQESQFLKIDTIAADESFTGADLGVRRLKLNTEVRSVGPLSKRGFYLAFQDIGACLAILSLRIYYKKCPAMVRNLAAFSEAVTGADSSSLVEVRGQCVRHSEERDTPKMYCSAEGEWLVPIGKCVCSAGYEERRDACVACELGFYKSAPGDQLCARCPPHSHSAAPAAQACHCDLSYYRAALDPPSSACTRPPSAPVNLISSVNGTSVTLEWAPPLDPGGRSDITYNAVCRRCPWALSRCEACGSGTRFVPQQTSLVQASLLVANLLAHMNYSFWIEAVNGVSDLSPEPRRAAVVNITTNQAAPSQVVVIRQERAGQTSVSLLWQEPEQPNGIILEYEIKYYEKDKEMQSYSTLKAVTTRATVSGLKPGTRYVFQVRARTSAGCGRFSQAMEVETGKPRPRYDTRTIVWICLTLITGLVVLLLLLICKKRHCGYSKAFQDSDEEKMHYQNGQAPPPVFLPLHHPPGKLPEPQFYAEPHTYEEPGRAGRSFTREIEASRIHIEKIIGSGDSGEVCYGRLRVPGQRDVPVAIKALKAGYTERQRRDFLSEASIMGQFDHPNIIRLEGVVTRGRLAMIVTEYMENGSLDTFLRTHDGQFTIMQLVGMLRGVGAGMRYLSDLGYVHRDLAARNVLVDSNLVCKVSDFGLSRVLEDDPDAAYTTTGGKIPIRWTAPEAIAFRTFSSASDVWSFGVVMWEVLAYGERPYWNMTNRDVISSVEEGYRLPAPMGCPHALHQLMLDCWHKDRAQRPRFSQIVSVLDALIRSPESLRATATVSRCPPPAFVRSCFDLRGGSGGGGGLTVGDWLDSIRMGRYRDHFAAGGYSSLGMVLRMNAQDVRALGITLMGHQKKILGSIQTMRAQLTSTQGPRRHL", "experiment": "Inhibition of EPH-A8 (unknown origin) at 0.5 uM relative to control"}}, "data": [{"smiles": "CNC(=O)c1cc(Oc2ccc(NC(=O)c3nc(SC)n(CCN(C)C)c3-c3ccc(F)cc3)cc2)ccn1", "values": [{"measurement": "inhibition", "setting": "[1]", "result": 25, "unit": "%"}, {"measurement": "inhibition", "setting": "[2]", "result": 58, "unit": "%"}, {"measurement": "inhibition", "setting": "[3]", "result": 44, "unit": "%"}, {"measurement": "inhibition", "setting": "[4]", "result": 57, "unit": "%"}]}, {"smiles": "CNC(=O)c1cc(Oc2ccc(NC(=O)c3nc(SC)oc3-c3ccc(F)cc3)cc2)ccn1", "values": [{"measurement": "inhibition", "setting": "[1]", "result": 42, "unit": "%"}, {"measurement": "inhibition", "setting": "[2]", "result": 69, "unit": "%"}, {"measurement": "inhibition", "setting": "[3]", "result": 80, "unit": "%"}]}, {"smiles": "CNC(=O)c1cc(Oc2ccc(NC(=O)c3nc(NC)sc3-c3ccc(F)cc3)cc2)ccn1", "values": [{"measurement": "inhibition", "setting": "[2]", "result": 62, "unit": "%"}, {"measurement": "inhibition", "setting": "[3]", "result": 53, "unit": "%"}, {"measurement": "inhibition", "setting": "[4]", "result": 58, "unit": "%"}]}, {"smiles": "CNC(=O)c1cc(Oc2ccc(NC(=O)c3n[nH]nc3-c3ccc(F)cc3)cc2)ccn1", "values": [{"measurement": "inhibition", "setting": "[2]", "result": 27, "unit": "%"}, {"measurement": "inhibition", "setting": "[3]", "result": 32, "unit": "%"}]}, {"smiles": "CNC(=O)c1cc(Oc2ccc(NC(=O)c3nc(C(F)(F)F)sc3-c3ccc(F)cc3)cc2)ccn1", "values": [{"measurement": "inhibition", "setting": "[1]", "result": 24, "unit": "%"}, {"measurement": "inhibition", "setting": "[2]", "result": 67, "unit": "%"}, {"measurement": "inhibition", "setting": "[3]", "result": 87, "unit": "%"}, {"measurement": "inhibition", "setting": "[4]", "result": 50, "unit": "%"}]}, {"smiles": "CNC(=O)c1cc(Oc2ccc(NC(=O)c3nc(SC)[nH]c3-c3ccc(F)cc3)cc2)ccn1", "values": [{"measurement": "inhibition", "setting": "[1]", "result": 82, "unit": "%"}, {"measurement": "inhibition", "setting": "[3]", "result": 90, "unit": "%"}, {"measurement": "inhibition", "setting": "[4]", "result": 96, "unit": "%"}]}, {"smiles": "CNC(=O)c1cc(Oc2ccc(NC(=O)c3nc(SC)oc3-c3ccc(F)cc3)cc2F)ccn1", "values": [{"measurement": "inhibition", "setting": "[1]", "result": 43, "unit": "%"}, {"measurement": "inhibition", "setting": "[2]", "result": 69, "unit": "%"}, {"measurement": "inhibition", "setting": "[3]", "result": 77, "unit": "%"}, {"measurement": "inhibition", "setting": "[4]", "result": 42, "unit": "%"}]}, {"smiles": "CSc1nc(C(=O)Nc2ccc(Oc3cc4cnn(C)c4cc3Br)cc2)c(-c2ccc(F)cc2)o1", "values": [{"measurement": "inhibition", "setting": "[2]", "result": 19, "unit": "%"}, {"measurement": "inhibition", "setting": "[4]", "result": 25, "unit": "%"}]}, {"smiles": "CNC(=O)c1cc(Oc2ccc(NC(=O)c3nc(S(C)(=O)=O)sc3-c3ccc(F)cc3)cc2)ccn1", "values": [{"measurement": "inhibition", "setting": "[1]", "result": 24, "unit": "%"}, {"measurement": "inhibition", "setting": "[3]", "result": 34, "unit": "%"}]}]}
